# Measured values: patent publication US10815238B2, “Antimicrobial compounds and methods of making and using the same” (BIOVERSYS AG, priority 2013, dated 2020)
# Test system: Eschericia coli (E. coli) strain ATCC25922
# Experiment: Standard microdilution assay, MIC against E. coli ATCC25922
# Assay type: cell-based
# Conditions: Escherichia coli; E. coli strain ATCC25922, standard microdilution assay; cutoff 16 micrograms/mL; read-out: MIC E. Coli
# Description: The in vitro activity of the compounds of the present invention can be determined. Antimicrobial testing is typically performed to determine the minimum inhibitory concentration (MIC). Minimum inhibitory concentrations (MICs) are determined by the microdilution method in a final volume of 100 μl according to protocols outlined by The Clinical and Laboratory Standards Institute (CLSI). Performance standards for reference strains are assessed within the same experimental design to maintain quality control. See, for example, Clinical Laboratory Standards Institute: Methods for dilution antimicrobial susceptibility tests for bacteria that grow aerobically M7-A8. Approved Standard-Eighth Edition. Wayne, Pa.: CLSI; December 2008; and Clinical Laboratory Standards Institute: Performance Standards for Antimicrobial Susceptibility Testing M100-S20; Approved Standard-Twentieth Edition. Wayne, Pa.: CLSI; June 2010.
# The compounds of the present invention were tested for antimicrobial activity. The Compounds 1-582 were run against Eschericia coli (E. coli) strain ATCC25922 and Compounds 320-582 were run against Staphylococcus aureus (S. aureus) 11540 strain using a standard microdilution assay to determine minimum inhibitory concentrations (MICs). […] It will be recognized by one skilled in the art that the compounds can be assessed against other bacterial organisms and that the presentation of data for activity against Eschericia coli and Staphylococcus aureus are illustrative and in no way is intended to limit the scope of the present invention. The compounds of the present invention can be assayed against a range of other microorganisms depending upon the performance activity desired to be gathered. Furthermore, the “+” and “−” representation and the selection of a cutoff value of 16 micrograms/mL is also illustrative and in no way is intended to limit the scope of the present invention.
row,Compound,MIC [µg/mL]
1,C=CC[C@@H](NCCCNC(=N)N)c1ccc(-n2cc3cc(-c4cc(CCC[C@H](C)N)cc(SC(F)(F)F)c4)[nH]c3nc2=O)cc1 [Compound 1],< 16
2,C[C@H](N)CCCc1cc(Cl)c(F)c(-c2cc3cn(-c4ccc([C@@H](CCN)NCCCNC(=N)N)cc4)c(=O)nc3[nH]2)c1 [Compound 2],< 16
3,C=CC[C@@H](NCCCNC(=N)N)c1ccc(-n2cc3cc(-c4cc(CCC[C@H](C)N)cc(Cl)c4F)[nH]c3nc2=O)cc1 [Compound 3],< 16
4,C=CC[C@@H](NCCCNC(=N)N)c1ccc(-n2cc3cc(-c4cc(CCC[C@H](C)N)cc(C(F)(F)F)c4)[nH]c3nc2=O)cc1 [Compound 4],< 16
5,COc1ccc([C@H](NCCCNC(=N)N)c2ccc(-n3cc4cc(-c5cc(CCC[C@H](C)N)cc(Cl)c5F)[nH]c4nc3=O)cc2)cc1 [Compound 5],< 16
6,C[C@H](N)CCCc1cc(-c2cc3cn(-c4ccc([C@@H](CCN)NCCCNC(=N)N)cc4)c(=O)nc3[nH]2)cc(C(F)(F)F)c1 [Compound 6],< 16
7,C[C@H](N)CCCc1cc(SC(F)(F)F)cc(-c2cc3cn(-c4ccc([C@@H](CCN)NCCCNC(=N)N)cc4)c(=O)nc3[nH]2)c1 [Compound 7],< 16
8,COc1ccc([C@H](c2ccc(SC)cc2)c2ccc(-n3cc4cc(-c5cc(CCC[C@H](C)N)cc(SC(F)(F)F)c5)[nH]c4nc3=O)cc2)cc1 [Compound 8],> 16
9,COc1ccc([C@@H](c2ccc(SC)cc2)c2ccc(-n3cc4cc(-c5cc(CCC[C@H](C)N)cc(SC(F)(F)F)c5)[nH]c4nc3=O)cc2)cc1 [Compound 9],> 16
10,C[C@H](N)CCCc1cc(-c2cc3cn(-c4ccc([C@H](C)NCCCNC(=N)N)cc4)c(=O)nc3[nH]2)c(F)cc1Cl [Compound 10],< 16
11,C=CC[C@H](NCCCNC(=N)N)c1ccc(-n2cc3cc(-c4cc(CCC[C@H](C)N)cc(SC(F)(F)F)c4)[nH]c3nc2=O)cc1 [Compound 11],< 16
12,C[C@H](N)CCCc1cc(Cl)c(F)c(-c2cc3cn(-c4ccc([C@@H](NCCCNC(=N)N)C(=O)N5CCNCC5)cc4)c(=O)nc3[nH]2)c1 [Compound 12],< 16
13,C[C@H](N)CCCc1cc(-c2cc3cn(-c4ccc([C@@H](NCCCNC(=N)N)C(=O)N5CCNCC5)cc4)c(=O)nc3[nH]2)cc(C(F)(F)F)c1 [Compound 13],< 16
14,C[C@H](N)CCCc1cc(SC(F)(F)F)cc(-c2cc3cn(-c4ccc([C@@H](NCCCNC(=N)N)C(=O)N5CCNCC5)cc4)c(=O)nc3[nH]2)c1 [Compound 14],< 16
15,C[C@H](N)CCCc1cc(Cl)c(F)c(-c2cc3cn(-c4ccc([C@H](CCO)NCCCNC(=N)N)cc4)c(=O)nc3[nH]2)c1 [Compound 15],< 16
16,C[C@H](N)CCCc1cc(-c2cc3cn(-c4ccc([C@H](CCO)NCCCNC(=N)N)cc4)c(=O)nc3[nH]2)cc(C(F)(F)F)c1 [Compound 16],< 16

row,Compound,MIC [µg/mL]
1,COc1ccc([C@H](NCCCNC(=N)N)c2ccc(-n3cc4cc(-c5cc(CCC[C@H](C)N)cc(C(F)(F)F)c5)[nH]c4nc3=O)cc2)cc1 [Compound 17],< 16
2,C[C@H](N)CCCc1cc(-c2cc3cn(-c4ccc([C@H](CCN)NCCCNC(=N)N)cc4)c(=O)nc3[nH]2)cc(C(F)(F)F)c1 [Compound 18],< 16
3,C[C@H](N)CCCc1cc(Cl)c(F)c(-c2cc3cn(-c4ccc([C@H](CCN)NCCCNC(=N)N)cc4)c(=O)nc3[nH]2)c1 [Compound 19],< 16
4,C[C@H](NCCCNC(=N)N)c1ccc(-n2cc3cc(-c4cc([C@H](O)CC[C@@H](C)N)cc(C(F)(F)F)c4)[nH]c3nc2=O)cc1 [Compound 20],< 16
5,C[C@H](N)CC[C@@H](O)c1cc(-c2cc3cn(-c4ccc([C@H](C)NCCCNC(=N)N)cc4)c(=O)nc3[nH]2)cc(C(F)(F)F)c1 [Compound 21],< 16
6,CC(N)CC[C@@H](O)c1cc(-c2cc3cn(-c4ccc([C@H](C)NCCCNC(=N)N)cc4)c(=O)nc3[nH]2)cc(C(F)(F)F)c1 (some centres unmarked) [Compound 22],< 16
7,C[C@H](N)CCCc1cc(SC(F)(F)F)cc(-c2cc3cn(-c4ccc([C@H](CCN)NCCCNC(=N)N)cc4)c(=O)nc3[nH]2)c1 [Compound 23],< 16
8,C[C@H](N)CCCc1cc(SC(F)(F)F)cc(-c2cc3cn(-c4ccc([C@H](CCO)NCCCNC(=N)N)cc4)c(=O)nc3[nH]2)c1 [Compound 24],< 16
9,C[C@H](N)CCCc1cc(SC(F)(F)F)cc(-c2cc3cn(-c4ccc([C@@H](NCCCNC(=N)N)c5ccc(O)cc5)cc4)c(=O)nc3[nH]2)c1 [Compound 25],< 16
10,C[C@H](N)CCCc1cc(Cl)c(F)c(-c2cc3cn(-c4ccc([C@@H](NCCCNC(=N)N)c5ccc(O)cc5)cc4)c(=O)nc3[nH]2)c1 [Compound 26],< 16
11,C[C@H](N)CCCc1cc(Cl)cc(-c2cc3cn(-c4ccc([C@H](C)NCCCNC(=N)N)cc4)c(=O)nc3[nH]2)c1 [Compound 27],< 16
12,COCC[C@H](NCCCNC(=N)N)c1ccc(-n2cc3cc(-c4cc(CCC[C@H](C)N)cc(C(F)(F)F)c4)[nH]c3nc2=O)cc1 [Compound 28],< 16
13,COCC[C@H](NCCCNC(=N)N)c1ccc(-n2cc3cc(-c4cc(CCC[C@H](C)N)cc(Cl)c4F)[nH]c3nc2=O)cc1 [Compound 29],< 16
14,COCC[C@H](NCCCNC(=N)N)c1ccc(-n2cc3cc(-c4cc(CCC[C@H](C)N)cc(SC(F)(F)F)c4)[nH]c3nc2=O)cc1 [Compound 30],< 16
15,C[C@H](NCCCNC(=N)N)c1ccc(-n2cc3cc(-c4cc(CCC[C@@H](N)CO)cc(SC(F)(F)F)c4)[nH]c3nc2=O)cc1 [Compound 31],< 16
16,C[C@H](N)CCCc1cc(Cl)c(F)c(-c2cc3cn(-c4ccc([C@@H](NCCCNC(=N)N)C(N)=O)cc4)c(=O)nc3[nH]2)c1 [Compound 32],< 16

# More lines, now with the values ahead:
row,MIC [µg/mL],Compound
1,< 16,Cc1cc(F)c(-c2cc3cn(-c4ccc([C@H](C)NCCCNC(=N)N)cc4)c(=O)nc3[nH]2)cc1CCC[C@H](C)N [Compound 33]
2,< 16,C[C@H](N)CC[C@@H](O)c1cc(OC(F)(F)F)cc(-c2cc3cn(-c4ccc([C@H](C)NCCCNC(=N)N)cc4)c(=O)nc3[nH]2)c1 [Compound 34]
3,< 16,N=C(N)NCCCNCc1ccc(-n2cc3cc(-c4cc(OC(F)(F)F)cc([C@H]5C[C@H](N)CCO5)c4)[nH]c3nc2=O)cc1 [Compound 35]
4,< 16,C[C@H](NCCCNC(=N)N)c1ccc(-n2cc3cc(-c4cc(OC(F)(F)F)cc([C@H]5C[C@H](N)CCO5)c4)[nH]c3nc2=O)cc1 [Compound 36]
5,< 16,N=C(N)NCCCNCc1ccc(-n2cc3cc(-c4cc(C[C@H]5C[C@H](N)CCO5)cc(OC(F)(F)F)c4)[nH]c3nc2=O)cc1 [Compound 37]
6,< 16,C[C@H](NCCCNC(=N)N)c1ccc(-n2cc3cc(-c4cc(C[C@H]5C[C@H](N)CCO5)cc(OC(F)(F)F)c4)[nH]c3nc2=O)cc1 [Compound 38]
7,< 16,C[C@H](N)CCCc1cc(Cl)c(F)c(-c2cc3cn(-c4ccc([C@@H](NCCCNC(=N)N)c5ccc(S(C)(=O)=O)cc5)cc4)c(=O)nc3[nH]2)c1 [Compound 39]
8,< 16,C[C@H](N)CCCc1cc(SC(F)(F)F)cc(-c2cc3cn(-c4ccc([C@@H](NCCCNC(=N)N)c5ccc(S(C)(=O)=O)cc5)cc4)c(=O)nc3[nH]2)c1 [Compound 40]
9,< 16,COc1ccc(Cn2cc(C[C@H](NCCCNC(=N)N)c3ccc(-n4cc5cc(-c6cc(CCC[C@H](C)N)cc(Cl)c6F)[nH]c5nc4=O)cc3)nn2)cc1 [Compound 41]
10,< 16,COc1ccc(Cn2cc(C[C@H](NCCCNC(=N)N)c3ccc(-n4cc5cc(-c6cc(CCC[C@H](C)N)cc(C(F)(F)F)c6)[nH]c5nc4=O)cc3)nn2)cc1 [Compound 42]
11,< 16,COc1ccc(Cn2cc(C[C@H](NCCCNC(=N)N)c3ccc(-n4cc5cc(-c6cc(CCC[C@H](C)N)cc(SC(F)(F)F)c6)[nH]c5nc4=O)cc3)nn2)cc1 [Compound 43]
12,< 16,C[C@H](N)CCCc1cc(Cl)c(F)c(-c2cc3cn(-c4ccc([C@@H](CO)NCCCNC(=N)N)cc4)c(=O)nc3[nH]2)c1 [Compound 44]
13,< 16,C[C@H](N)CCCc1cc(SC(F)(F)F)cc(-c2cc3cn(-c4ccc([C@@H](CO)NCCCNC(=N)N)cc4)c(=O)nc3[nH]2)c1 [Compound 45]
14,< 16,C[C@H](N)CCCc1cc(Cl)c(F)c(-c2cc3cn(-c4ccc([C@H](Cc5c[nH]nn5)NCCCNC(=N)N)cc4)c(=O)nc3[nH]2)c1 [Compound 46]
15,< 16,C[C@H](N)CCCc1cc(-c2cc3cn(-c4ccc([C@H](Cc5c[nH]nn5)NCCCNC(=N)N)cc4)c(=O)nc3[nH]2)cc(C(F)(F)F)c1 [Compound 47]
16,< 16,C[C@H](N)CCCc1cc(SC(F)(F)F)cc(-c2cc3cn(-c4ccc([C@H](Cc5c[nH]nn5)NCCCNC(=N)N)cc4)c(=O)nc3[nH]2)c1 [Compound 48]
17,< 16,N=C(N)NCCCNCc1ccc(-n2cc3cc(-c4ccc(C(=O)NCc5csc(N6CCOCC6)n5)cc4)[nH]c3nc2=O)cc1 [Compound 49]
18,< 16,N=C(N)NCCCNCc1ccc(-n2cc3cc(-c4ccc(/C=C/C5CN(C(=N)N)C5)cc4)[nH]c3nc2=O)cc1 [Compound 50]
